Consider five molecules from patent US9018231B2, “Sulfone compounds as 5-HT6 receptor ligands” (Suven Life Sciences Limited, priority 2010, dated 2015).

The conditions of series [1]: in vivo; cited from earlier work.
For series [2], the target named is T1, recombinant human 5-HT6 receptor (Homo sapiens, UniProt P50406).
T1 construct: expressed in transfected cells
The experiment in a line: Determination of Kb values for 5-HT6 receptor (CHO pCRE-Luc reporter assay). It is filed as cell-based. Conditions: antagonism of 10 uM serotonin, luciferase reporter, CHO cells. Here is the method:
A stable CHO cell line expressing recombinant human 5-HT6 receptor and pCRE-Luc reporter system was used for cell-based assay. The assay offers a non-radioactive based approach to determine binding of a compound to GPCRs. In this specific assay, the level of intracellular cyclic AMP which is modulated by activation or inhibition of the receptor is measured. The recombinant cells harbor luciferase reporter gene under the control of cAMP response element.
The above cells were grown in 96 well clear bottom white plates in Hams F12 medium containing 10% fetal bovine serum (FBS). Prior to the addition of compounds and/or agonist, cells were serum starved overnight. Increasing concentrations of test compounds were added along with 10 uM serotonin in Hams F12 medium containing 1% dialyzed FBS to the cells. The incubation was continued at 37° C. in CO2 incubator for 4 hours. Medium was removed and cells were washed with phosphate buffered saline. The cells were lysed and luciferase activity was measured in a Luminometer. Luminescence units were plotted against the compound concentrations using Graphpad software. EC50 values of the compounds were defined as the concentration required reducing the luciferase activity by 50%. The Kb values were calculated by feeding the concentration of the agonist used in the assay and its EC50 value in the same software.

Series [3] is described as follows: Object recognition task model. It is filed as in vivo. Conditions: rat, 10 mg/kg, p.o. Here is the method: The cognition-enhancing properties of compounds of this invention were estimated using a model of animal cognition: the object recognition task model.
Male Wister rats (230-280 grams) obtained from N.I.N. (National Institute of Nutrition, Hyderabad, India) was used as experimental animals. Four animals were housed in each cage. Animals were kept on 20% food deprivation before one day and given water ad libitum throughout the experiment and maintained on a 12 hours light/dark cycle. Also the rats were habituated to individual arenas for 1 hour in the absence of any objects.
One group of 12 rats received vehicle (1 mL/Kg) orally and another set of animals received compound of the formula (I) either orally or i.p., before one hour of the familiar (T1) and choice trial (T2).
The experiment was carried out in a 50×50×50 cm open field made up of acrylic. In the familiarization phase, (T1), the rats were placed individually in the open field for 3 minutes, in which two identical objects (plastic bottles, 12.5 cm height×5.5 cm diameter) covered in yellow masking tape alone (a1 and a2) were positioned in two adjacent corners, 10 cm. from the walls. After 24 hours of the (T1) trial for long-term memory test, the same rats were placed in the same arena as they were placed in T1 trial. Choice phase (T2) rats were allowed to explore the open field for 3 minutes in presence of one familiar object (a3) and one novel object (b) (Amber color glass bottle, 12 cm high and 5 cm in diameter). Familiar objects presented similar textures, colors and sizes. During the T1 and T2 trial, explorations of each object (defined as sniffing, licking, chewing or having moving vibrissae whilst directing the nose towards the object at a distance of less than 1 cm) were recorded separately by stopwatch. Sitting on an object was not regarded as exploratory activity, however, it was rarely observed. T1 is the total time spent exploring the familiar objects (a1+a2). T2 is the total time spent exploring the familiar object and novel object (a3+b).
The object recognition test was performed as described by Ennaceur, A., Delacour, J., 1988, A new one-trial test for neurobiological studies of memory in rats—Behavioural data, Behav. Brain Res., 31, 47-59.

Series [4] can be described thus: Water maze (scopolamine induced reversal). It is filed as in vivo. Conditions: rat, p.o. As to the method:
The water maze apparatus consisted of a circular pool (1.8 m diameter, 0.6 m high) constructed in black Perspex (TSE systems, Germany) filled with water (24±2° C.) and positioned underneath a wide-angled video camera to track animal. The 10 cm^2 perspex platform, lying 1 cm below the water surface, was placed in the centre of one of the four imaginary quadrants, which remained constant for all rats. The black Perspex used in the construction of the maze and platform offered no intramaze cues to guide escape behavior. By contrast, the training room offered several strong extramaze visual cues to aid the formation of the spatial map necessary for escape learning. An automated tracking system, [Videomot 2 (5.51), TSE systems, Germany] was employed. This program analyzes video images acquired via a digital camera and an image acquisition boards that determined path length, swim speed and the number of entries and duration of swim time spent in each quadrant of the water maze.

Series [5] in a line: Rodent pharmacokinetic study. It is filed as in vivo. Conditions: Wistar/Male rat, 10 mg/kg; for AUCt / Cmax / T1/2 / Tmax / AUC(0-t) / half-life: vehicle water (Ex. 8: 50% PEG 400); for bioavailability: Oral vs Intravenous. Here is the method:
Male wistar rats (230-280 grams) obtained from NIN (National Institute of Nutrition, Hyderabad, India) were used as an experimental animal. Three to five animals were housed in each cage. Animals were kept fasted over night and maintained on a 12 hours light/dark cycle. Three rats were dosed NCE (10 mg/Kg) orally and intravenously on day 0 and day 2.
At each time point blood was collected by jugular vein. Plasma was stored frozen at −20° C. until analysis. The concentrations of the NCE compound in plasma were determined using LC-MS/MS method. Schedule time points: Pre dose 0.25, 0.5, 1, 1.5, 2, 3, 4, 6, 8, 10, 12 and 24 hours after dosing (n=3). The NCE compounds were quantified in plasma by validated LC-MS/MS method using solid phase extraction technique. NCE compounds were quantified in the calibration range of 2-2000 ng/mL in plasma. Study samples were analyzed using calibration samples in the batch and quality control samples spread across the batch.
Pharmacokinetic parameters Cmax, Tmax, AUCt, T1/2 and Bioavailability were calculated by non-compartmental model using software WinNonlin version 5.1.

Setting [6] is: plasma, Intravenous, read-out: Cmax.
The mark [7] stands for this setting: plasma, Intravenous, read-out: Tmax.
The mark [8] stands for this setting: plasma, read-out: Bioavailability.

SMILES strings stand for the structures. Where two headings read alike, the source gives them in different places.

T1 sequence (P50406 whole entry): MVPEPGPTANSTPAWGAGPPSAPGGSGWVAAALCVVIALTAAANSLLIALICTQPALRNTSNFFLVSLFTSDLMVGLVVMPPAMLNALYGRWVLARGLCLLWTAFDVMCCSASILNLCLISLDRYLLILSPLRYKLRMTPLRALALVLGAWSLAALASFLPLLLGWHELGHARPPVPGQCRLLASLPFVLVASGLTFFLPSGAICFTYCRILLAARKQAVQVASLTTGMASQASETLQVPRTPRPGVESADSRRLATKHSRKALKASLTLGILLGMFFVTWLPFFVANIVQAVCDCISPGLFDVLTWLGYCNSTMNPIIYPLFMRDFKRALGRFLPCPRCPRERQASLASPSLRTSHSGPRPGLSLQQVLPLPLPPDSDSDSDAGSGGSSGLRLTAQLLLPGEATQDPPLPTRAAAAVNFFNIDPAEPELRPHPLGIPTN

For the molecule `COc1ccc(NS(=O)(=O)c2sc3ccc(Cl)cc3c2C)cc1N1CCNCC1` [SB-271046, 5-Chloro-N-(4-methoxy-3-piperazin-1-ylphenyl)-3-methyl-2-benzothiophenesulfonamide], in series [1], the “activity in animal tests related to positive or negative symptoms of schizophrenia” value is “inactive”.

In the case of `COc1ccc(S(=O)(=O)c2c[nH]c3cc(Cl)ccc23)cc1NC1CCNCC1` [Example 16, N-(Piperidin-4-yl)-N-[2-methoxy-5-(6-chloro-1H-Indole-3-ylsulfonyl)phenyl] amine], the melting point was in the range of 208 to 208.9 °C. Also, in series [2], the Kb is 0.22 nM. Moreover, in series [3], the “Exploration time mean ± S.E.M, Familiar object” value worked out at 8.10 ± 1.78 s; the “Exploration time mean ± S.E.M, Novel object” value came to 12.00 ± 1.84 s; the Inference result is recorded as “Active”. In series [4], the “Scopolamine Induced Reversal” value is “≦10 mg/kg, p.o”.

Regarding `Cc1ccc(S(=O)(=O)c2c[nH]c3cc(Cl)ccc23)cc1NC1CCN(C)CC1` [Example 1, N-[2-methyl-5-(6-chloro-1H-indole-3-ylsulfonyl)phenyl]-N-(1-methypiperidin-4-yl)amine], in series [2], the Kb came out at 1.55 nM. Further, in series [3], the “Exploration time mean ± S.E.M, Familiar object” value was found to be 10.10 ± 1.84 s; the “Exploration time mean ± S.E.M, Novel object” value worked out at 13.22 ± 2.00 s; the Inference entry is reported as “Active”. Also, in series [5] (Intravenous), the AUCt was 2484 ± 853 ng·h/mL, the Cmax was 1644 ± 582 ng/mL, the T1/2 was 5.23 ± 2.08 h and the Tmax is listed as 0.14 ± 0.10 h. The bioavailability in series [5] was found to be 31 ± 12%. Besides, in series [5] (Oral), the AUCt was determined as 750 ± 363 ng·h/mL, the Cmax came to 128 ± 13 ng/mL, the T1/2 came out at 6.38 ± 1.38 h and the Tmax came to 3.42 ± 2.74 h. Besides, the “Scopolamine Induced Reversal” value in series [4] is “≦10 mg/kg, p.o”.

Molecule `CN1CCC(Nc2cc(S(=O)(=O)c3c[nH]c4cc(Cl)ccc34)ccc2Cl)CC1.Cl` [Example 8, N-(1-Methylpiperidin-4-yl)-N-[2-chloro-5-(6-chloro-1H-indole-3-ylsulfonyl)phenyl]amine hydrochloride] registered a melting point of 189.7 to 194.2 °C. In addition, in series [2], the Kb came to 5.7 nM. Further, in series [5] (plasma, Intravenous), the AUC(0-t) worked out at 6950 ± 3450 ng·h/mL and the half-life was 5.64 ± 0.95 h. Further, the Cmax in series [5] (setting [6]) is 1340 ± 426 ng/mL. The time to peak (Tmax) in series [5] (setting [7]) is 0.08 h. Besides, in series [5] (setting [8]), the bioavailability is 58 ± 12%. In series [5] (plasma, Oral), this molecule showed an area under the curve AUC(0-t) of 3810 ± 1340 ng·h/mL and a half-life of 9.06 ± 2.13 h. Moreover, the maximum concentration (Cmax) in series [5] (plasma, Oral, read-out: Cmax) came to 327 ± 99 ng/mL. The Tmax in series [5] (plasma, Oral, read-out: Tmax) was 3 h.

As for `COc1ccc(S(=O)(=O)c2c[nH]c3cc(Cl)ccc23)cc1NC1CCN(C)CC1` [Example 17, N-(1-Methylpiperidin-4-yl)-N-[2-methoxy-5-(6-chloro-1H-Indole-3-ylsulfonyl)phenyl] amine], the melting point was 88.6 to 91.6 °C. In addition, the antagonist equilibrium constant (Kb) in series [2] was determined as 0.82 nM. In series [5] (plasma, Intravenous), the AUC(0-t) worked out at 5730 ± 2620 ng·h/mL and the half-life is 3.86 ± 0.09 h. In addition, in series [5] (setting [6]), the maximum concentration (Cmax) amounted to 4220 ± 2250 ng/mL. For the same molecule, the Tmax in series [5] (setting [7]) came out at 0.08 h. For the same molecule, the bioavailability in series [5] (setting [8]) is 24 ± 2%. In series [5] (plasma, Oral), this molecule had an AUC(0-t) of 1430 ± 734 ng·h/mL and a half-life of 1.86 ± 0.09 h. The highest concentration (Cmax) in series [5] (plasma, Oral, read-out: Cmax) was 379 ± 160 ng/mL. In addition, the Tmax in series [5] (plasma, Oral, read-out: Tmax) was determined as 3 h.
